“Also recorded” adds a separate entry of the source. Read-outs that look alike come from different tables or passages of the source.
Columns and labels:
Assay type in all cases: cell-based
[1] = system: NF-κB; test: Screening of oligosaccharides NFK-B inhibiting activity; settings: screening of (oligo)saccharides, Yes/No
Source text: It is hypothesized that the main site of action of the specific nutritional oligosaccharides as mentioned in example 1, is the intestine. […] Screening of oligosaccharides NFK-B inhibiting activity

[2] = system: NFκB activation; test: NFκB luciferase reporter in HEK293 cells with EPA, pAOS and L-cysteine, TNF-α induced; settings: HEK293-NFκB-Luc cells stimulated with TNFα; for activity at 1000 µM: Homo sapiens, read-out: Inhibition of NFκB activation, average
Description: Methods: HEK293 cells were stably transfected with a NFκB luciferase reporter gene construct. One day after cell plating EPA (0, 25 μM) was added at t=0 h. pAOS (0, 1, 2 and 3 g/L) were added at t=96 h and L-cysteine (0, 1 mM) at t=120 h. NFκB activation was induced by 2.5 h incubation with TNF-α. Luciferase activity was subsequently assessed at t=122.5 h. As a control for cell viability cellular ATP levels were determined.

[3] = system: TNF-α-mediated NF-κB activation; test: NF-κB luciferase reporter in HEK293 cells, TNF-α induced (pAOS with NAC or L-cysteine); settings: pAOS pre-incubated, NAC or L-cysteine added with TNF-α for 2.5 hr
Description: FIG. 2. NFkappaB response in HEK293 cells after 22.5 hr. incubation with AOS and NAC (A) or L-cysteine (B) with TNF-α for 2.5 hr. […] TNF-α was added to induce NF-κB activation. citrus pectin oligosaccharide (pAOS) was added 18 h prior to TNF-α addition (t=18 h). As a cystein source, NAC was added at the same time as TNF-α. At t=20.5 the production of luciferase was measured by chemiluminescence.

[4] = system: HEK293 cells; test: Glutathione in HEK293 cells incubated with pAOS and NAC; settings: AOS 22.5 hr (18 h in Example 4), NAC 2.5 hr, compared with TNF-α-stimulated cells (control)
Description: To determine this, HEK293 cells were incubated with AOS for 22.5 hr. and NAC in combination with TNF-α for 2.5 hr. Obtained GSH levels were corrected for cell numbers and results were compared levels with TNF-α-stimulated cells (control). […] The combination of NAC and AOS enhance GSH production up to 278% compared with control. Data sets were compared with their baseline controls (0 mg/ml AOS in combination with its specific concentration of NAC or L-cysteine) and presented in example 2. High concentrations of AOS and NAC result in a relative stronger increase in GSH levels.
Methods: HEK293 cells were incubated with citrus pectin oligosaccharide (pAOS) for 18 h, then as a cystein source, NAC was added and incubated for 2.5 h. After the incubation period, the cells were centrifugated (2000 rpm for 5 min). Medium was discarded and taken up into ice-cold perchloric acid (0.4 M) and resuspended. Samples were then centrifuged for 10 min. at 13.000 rpm. Supernatant was collected and used for glutathione measurements. Total glutathione measurements were performed in 10 or 20 times diluted samples.

OC[C@H]1O[C@@](CO)(OC[C@@]2(OC[C@@]3(OC[C@@]4(O[C@H]5O[C@H](CO)[C@@H](O)[C@H](O)[C@H]5O)O[C@H](CO)[C@@H](O)[C@@H]4O)O[C@H](CO)[C@@H](O)[C@@H]3O)O[C@H](CO)[C@@H](O)[C@@H]2O)[C@@H](O)[C@@H]1O [1,1,1-kestopentaose]
NFκB inhibition [1]: No

OC[C@H]1O[C@@](CO)(OC[C@@]2(OC[C@@]3(O[C@H]4O[C@H](CO)[C@@H](O)[C@H](O)[C@H]4O)O[C@H](CO)[C@@H](O)[C@@H]3O)O[C@H](CO)[C@@H](O)[C@@H]2O)[C@@H](O)[C@@H]1O [1,1-kestotetraose]
NFκB inhibition [1]: No

O=C(O)[C@H]1O[C@H](O[C@@H]2[C@H](O)[C@@H](O)[C@@H](O[C@@H]3[C@H](O)[C@@H](O)C(O)O[C@@H]3C(=O)O)O[C@@H]2C(=O)O)[C@H](O)[C@@H](O)[C@H]1O (stereo partly drawn) [Trigalacturonic acid]
NFκB inhibition [1]: Yes

CC/C=C\C/C=C\C/C=C\C/C=C\C/C=C\CCCC(=O)O [EPA, eicosapentaenoic acid]
Inhibition of NFκB activation, average ([2]; AOS 0 mg/ml, EPA 25 uM and/or L-cysteine 1 mM as labelled, control without additions = 100): 113 | Inhibition of NFκB activation, average ([2]; AOS 1 mg/ml, alone or together with the labelled EPA 25 uM and/or L-cysteine 1 mM, control = 100): 62 | Inhibition of NFκB activation, average ([2]; AOS 2 mg/ml, alone or together with the labelled EPA 25 uM and/or L-cysteine 1 mM, control = 100): 29 | Inhibition of NFκB activation, average ([2]; AOS 3 mg/ml, alone or together with the labelled EPA 25 uM and/or L-cysteine 1 mM, control = 100): 8

O=C(O)[C@H]1O[C@H](O[C@@H]2[C@H](O)[C@@H](O)[C@@H](O)O[C@@H]2C(=O)O)[C@H](O)[C@@H](O)[C@H]1O [Digalacturonic acid]
NFκB inhibition [1]: Yes

CC(=O)N[C@@H](CS)C(=O)O [NAC, N-acetyl cysteine]
TNF-α-mediated NF-κB activation, result in words [3]: capable of blocking NF-κB activation; also recorded: inhibited TNF-α-mediated NF-κB activation dose dependently | GSH (glutathione) levels, result in words [4]: enhances GSH levels in a concentration of 10 mM

OC[C@H]1O[C@H](OC[C@H]2OC(O)(CO)[C@@H](O)[C@@H]2O)[C@H](O)[C@@H](O)[C@@H]1O (stereo partly drawn) [Palatinose]
NFκB inhibition [1]: No

OC[C@H]1O[C@@](CO)(OC[C@@]2(O[C@H]3O[C@H](CO)[C@@H](O)[C@H](O)[C@H]3O)O[C@H](CO)[C@@H](O)[C@@H]2O)[C@@H](O)[C@@H]1O [1-kestose]
NFκB inhibition [1]: No

N[C@@H](CS)C(=O)O [L-cysteine]
activity at 1000 µM ([2]; HEK293, AOS 0 mg/ml, EPA 25 uM and/or L-cysteine 1 mM as labelled, control without additions = 100): 80% | activity at 1000 µM ([2]; HEK293, AOS 1 mg/ml, alone or together with the labelled EPA 25 uM and/or L-cysteine 1 mM, control = 100): 55% | activity at 1000 µM ([2]; HEK293, AOS 2 mg/ml, alone or together with the labelled EPA 25 uM and/or L-cysteine 1 mM, control = 100): 32% | activity at 1000 µM ([2]; HEK293, AOS 3 mg/ml, alone or together with the labelled EPA 25 uM and/or L-cysteine 1 mM, control = 100): 24%

O.OC[C@H]1O[C@H](OC[C@H]2O[C@H](OC[C@H]3O[C@H](O[C@]4(CO)O[C@H](CO)[C@@H](O)[C@@H]4O)[C@H](O)[C@@H](O)[C@@H]3O)[C@H](O)[C@@H](O)[C@H]2O)[C@H](O)[C@@H](O)[C@H]1O [Stachyose hydrate]
NFκB inhibition [1]: No

O=C[C@H](O)[C@@H](O)[C@@H](O)[C@H](O)C(=O)O [Galacturonic acid]
NFκB inhibition [1]: No
